How the values were obtained:
[1] = Dynamic light scattering (DLS) solubility assay; format: physicochemical; conditions: normalized intensity ratio of 25 μM compound vs DMSO, in PBS
Method: Dynamic light scattering (DLS) (see Table 1, column 3) is a tool for studying the diffusion behavior of macromolecules in solution. To profile compound solubility, DLS assay was developed for measuring aggregation of small molecule compounds. Compound stock solution was prepared in DMSO. Dilution series were made for each compound in DMSO to ensure a final 1× assay concentration range of 200 μM to 0.78 μM. For example, if the final DMSO concentration was 1%, compounds were prepared at 100× concentrations ranging from […] to 78 μM. Dilute compounds in PBS solution to final concentration. Place 60 μl/well in 96 well plates and 3 replicates for each sample. Data were collected using a DynaPro Plate Reader III (WYATT Technologies, Inc., USA). The instrument was adjusted to measure the optimal light scattering intensity according to the manufacturer's instructions. […] The ratio over 2 means (−) insoluble. The ratio below 2 means (+) soluble and around 2 means (+/−).

[2] = target: CUL4A-DDB1-BPB interaction (Homo sapiens (Human), UniProt Q16531); experiment: AlphaLISA in vitro binding assay, CUL4A and DDB1-BPB binding; conditions: inhibition of CUL4A and DDB1-BPB binding
CUL4A-DDB1-BPB interaction, sequence (Q16531 403-706): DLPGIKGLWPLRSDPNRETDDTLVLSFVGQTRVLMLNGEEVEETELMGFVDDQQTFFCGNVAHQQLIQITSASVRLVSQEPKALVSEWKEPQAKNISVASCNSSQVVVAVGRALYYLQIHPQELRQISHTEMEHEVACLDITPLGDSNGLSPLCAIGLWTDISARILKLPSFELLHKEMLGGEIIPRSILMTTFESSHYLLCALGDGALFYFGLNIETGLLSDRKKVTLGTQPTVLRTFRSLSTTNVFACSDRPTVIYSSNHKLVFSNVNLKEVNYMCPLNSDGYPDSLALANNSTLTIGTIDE
From the text: AlphaLISA IC50 (see Table 1, column 4) means the half maximal inhibitory concentration of compound that inhibits CUL4A and DDB1-BPB binding. Our lab established and optimized 384 well-based AlphaLISA in vitro binding assay for testing small molecule inhibitory activity. Small molecule libraries were screened for compounds that disrupt CUL4A-DDB1-BPB interaction using AlphaScreen detection beads (PerkinElmer, #AL112C and #6765300) following the manufacturer's protocol (https://www.perkinelmer.com/PDFs/downloads/GDE-Alphatech.pdf, hereby incorporated by reference in its entirety for all purposes). The 384-well assay plates (Greiner Bio-one, #781075) were read in Synergy Neo2 Hybrid Multi-Mode Reader (BioTek). The IC50 was calculated by Prism 8 XY analysis nonlinear regression (curve fit-Log(inhibitor) vs response).

[3] = tested on: UV-induced CUL4-dependent DDB2 degradation in MEF-F-DDB2 cells; experiment: Cell-based assay for inhibition of UV-induced CUL4-dependent DDB2 degradation; design: key: (+) means that the normalized DDB2/α-tubulin ratio is higher in the compound treated sample than DMSO treated sample; (−) means that no change happens between compound treated sample with control sample; conditions: DDB2/α-tubulin by Western blot
Method: Cell-based assay for inhibition of UV-induced CUL4-dependent DDB2 degradation by small molecule CUL4 inhibitors (see Table 1, column 5). Briefly, MEF-F-DDB2 cells were seeded in 6-well plates. DMSO or indicated concentrations of compounds were added to MEF-F-DDB2 cells growing in serum-free medium. MEF-F-DDB2 cells were washed once with PBS and subsequently irradiated with a Philips TUV lamp (predominantly 254 nm) at a dose rate of 0.2 W/m^2. DMSO or compounds were added to MEF-F-DDB2 cells, and then cells were harvested. The cells were lysed, and equal amounts of proteins were resolved on SDS-PAGE gel and Flag-DDB2 levels were detected using anti-DDB2 (D4C4) rabbit antibody (Cell signaling, #5416S). α-tubulin (Proteintech, #66031-1-Ig) was used as an internal loading control. (+) means that the normalized DDB2/α-tubulin ratio is higher in the compound treated sample than DMSO treated sample. (−) means that no change happens between compound treated sample with control sample.

[4] = tested on: CUL4A^high MDA-MB-468 breast cancer cells; experiment: Cell killing in CUL4-high MDA-MB-468 cells (CellTiter Glo); format: cell-based; conditions: Homo sapiens, 192 h; MDA-MB-468 cells, 8 days treatment; read-out: EC50 CUL4-High Cells (cell killing)
Method: EC50 refers to concentration of compound that induces 50% killing of CUL4A^high MDA-MB-468 cells (see Table 1, column 6). CUL4A^high MDA-MB-468 breast cancer cells were seeded in 96 well plates. After 24 hours, cells were treated with DMSO or compounds. Change fresh medium and compounds. After 8 days treatment, cell viability was examined by using CellTiter Glo kit (Promega #7570) following the manufacturer's guidelines (https://www.promega.com/-/media/files/resources/protocols/technicalbulletins/0/celltiter-glo-luminescent-cell-viability-assay protocol.pdf?rev=0d95c232094b41daa06d0c110d1d916f&sc_lang=en, hereby incorporated by reference in its entirety for all purposes). EC50 concentration was calculated by Prism 8 XY analysis nonlinear regression (curve fit-Log(inhibitor) vs response). Lower EC50 indicates high cell killing potential in CUL4^high MDA-MB-468 cells.
(§1) CUL4A^high MDA-MB-468, CUL4^low (T47D), and MCF7 breast cancer cells were seeded in 96 well plates separately. Cells were treated with DMSO, or from 0 to 20 μM compound respectively. Replace with fresh medium and compounds every 48 hours. After 8 days treatment, cell viability was examined by CellTiter Glo kit (Promega #7570). First, transfer the appropriate volume (10 ml for Cat. #G7570) of CellTiter-Glo® Buffer into the amber bottle containing CellTiter-Glo® Substrate to reconstitute the lyophilized enzyme/substrate mixture. This forms the CellTiter-Glo® Reagent. Second, add CellTiter-Glo® Reagent in an equal volume (100 μl per well for 96-well plates) to all wells. Mix contents for 2 minutes on an orbital shaker to induce cell lysis. Incubate at room temperature for 15 minutes to stabilize luminescent signal. Then record luminescence. EC50 concentration was calculated by Prism 8 XY analysis nonlinear regression (curve fit-Log(inhibitor) vs response).

[5] = tested on: CUL4A^low T47D breast cancer cells; experiment: Cell killing in CUL4-low T47D cells (CellTiter Glo); format: cell-based; conditions: Homo sapiens, 192 h; T47D cells, 8 days treatment; read-out: EC50 CUL4-Low Cells (cell killing)
Method: EC50 indicates compound concentration can cause 50% cell killing in CUL4° ^w T47D cells (see Table 1, column 7). CUL4A^low T47D breast cancer cells were seeded in 96 well plate. […] Change fresh medium and compounds every 48 hours. After 8 days treatment, cell viability was examined by using CellTiter Glo kit (Promega #7570) following the manufacturer's guidelines (https://www.promega.com/-/media/files/resources/protocols/technical-bulletins/0/celltiter-glo-luminescent-cell-viability-assay-protocol.pdf?rev=0d95c232094b41daa06d0c110d1d916f&sc_lang=en, hereby incorporated by reference in its entirety for all purposes). EC50 concentration was calculated by Prism 8 XY analysis nonlinear regression (curve fit-Log(inhibitor) vs response). EC50 indicates cell killing potential in CUL4 low T47D cell line and the EC50 difference between CUL4^high and CUL4^low cells indicates the small molecule cause specific cell killing.
as §1, with “Cells were treated with DMSO, or from 0 to 20 μM compound respectively.” left out

| SMILES | Solubility (DLS Assay) [1] | IC50 [2] | Degradation Inhibition (inhibition of UV-induced DDB2 degradation) [3] | EC50 [4] | EC50 [5] | AlphaLisa IC50 [2] |
| --- | --- | --- | --- | --- | --- | --- |
| CN(c1ccc(-c2nc(C(=O)O)cc3c2[nH]c2ccc(F)c(F)c23)cc1)S(=O)(=O)c1ccccc1 [PA1-1, 1-[4-[benzenesulfonyl(methyl)amino]phenyl]-5,6-difluoro-9H-pyrido[3,4-b]indole-3-carboxylic acid] | -(insoluble) | 0.17 µM | − | 15.2 µM | > 100 µM |  |
| CN(c1ccc(-c2nc(C(=O)O)cc3c2[nH]c2c(F)cccc23)cc1)S(=O)(=O)c1ccccc1 [PA1-4, 8-fluoro-1-(4-(N-methylphenylsulfonamido)phenyl)-9H-pyrido[3,4-b]indole-3-carboxylic acid] |  | 8.88 µM | − | 6.9 µM | 10.9 µM |  |
| O=C(O)c1cc2c([nH]c3cc(F)ccc32)c(-c2ccc(OCc3ccccc3)cc2)n1 [PA1-11, 1-(4-benzyloxyphenyl)-7-fluoro-9H-pyrido[3,4-b]indole-3-carboxylic acid] | -(insoluble) | 5.84 µM | − | 9.9 µM |  |  |
| CN(c1ccc(-c2nc(C(=O)O)cc3c2[nH]c2cc(F)ccc23)c(F)c1)S(=O)(=O)c1ccccc1 [PA1-12, 1-[4-[benzenesulfonyl(methyl)amino]-2-fluoro-phenyl]-7-fluoro-9H-pyrido[3,4-b]indole-3-carboxylic acid] | -(insoluble) | 0.75 µM | + | 7.37 µM |  |  |
| CN1CCN(S(=O)(=O)N(C)c2ccc(-c3nc(C(=O)O)cc4c3[nH]c3cc(F)ccc34)cc2)CC1 [PA1-13A-3, 1-(4-(N,4-dimethylpiperazine-1-sulfonamido)phenyl)-7-fluoro-9H-pyrido[3,4-b]indole-3-carboxylic acid] | -(insoluble) | 0.45 µM | − | 7.25 µM |  |  |
| CN(c1ccc(-c2nc(C(=O)O)cc3c2[nH]c2ccc(F)cc23)cc1)S(=O)(=O)c1ccc(Br)cc1 [PA2-4, 1-[4-[(4-bromophenyl)sulfonyl-methyl-amino]phenyl]-6-fluoro-9H-pyrido[3,4-b]indole-3-carboxylic acid] |  | 0.75 µM | + | 4.49 µM | > 100 µM |  |
| COC(=O)c1ccc(-c2nc(C(=O)O)cc3c2[nH]c2ccccc23)cc1 [PA20, 1-(4-methoxycarbonylphenyl)-9H-pyrido[3,4-b]indole-3-carboxylic acid] |  | 2.09 ± 1.26 µM | + | 91.3 µM | > 100 µM |  |
| O=[N+]([O-])c1ccc(-c2nc(-c3nn[nH]n3)cc3c2[nH]c2ccccc23)cc1 [PA40, 1-(4-nitrophenyl)-3-(1H-tetrazol-5-yl)-9H-pyrido[3,4-b]indole] | -(insoluble) | 12.9 ± 7.44 µM |  | 23.5 µM | 54.7 µM |  |
| N#Cc1cc2c([nH]c3ccccc32)c(-c2ccc([N+](=O)[O-])cc2)n1 [PA42, 1-(4-nitrophenyl)-9H-pyrido[3,4-b]indole-3-carbonitrile] |  |  |  | 73.1 µM | > 100 µM | Neg |
| CS(=O)(=O)Nc1ccc(-c2nc(C(=O)O)cc3c2[nH]c2ccccc23)cc1 [PA48, 1-[4-(methanesulfonamido)phenyl]-9H-pyrido[3,4-b]indole-3-carboxylic acid] |  | 1.26 ± 0.45 µM | + | 84.1 µM | > 100 µM |  |
| CS(=O)(=O)Oc1ccc(-c2nc(C(=O)O)cc3c2[nH]c2ccccc23)cc1 [PA53, 1-(4-methylsulfonyloxyphenyl)-9H-pyrido[3,4-b]indole-3-carboxylic acid] |  | 1.31 ± 0.24 µM |  | 27.5 µM | 69.5 µM |  |
| CS(=O)(=O)NC(=O)c1cc2c([nH]c3ccccc32)c(-c2ccc(S(C)(=O)=O)cc2)n1 [PA55] |  | 11.1 ± 2.71 µM | − | 30.7 µM | 53.8 µM |  |
| COC(=O)c1cc2c([nH]c3ccccc32)c(-c2ccc(S(=O)(=O)Cc3ccccc3)cc2)n1 [PA65, methyl 1-(4-benzylsulfonylphenyl)-9H-pyrido[3,4-b]indole-3-carboxylate] | -(insoluble) |  |  | 18.1 µM | 44.3 µM | Neg |
| O=C(O)c1cc2c([nH]c3ccccc32)c(-c2ccc(S(=O)(=O)Cc3ccccc3)cc2)n1 [PA67, 1-(4-benzylsulfonylphenyl)-9H-pyrido[3,4-b]indole-3-carboxylic acid] |  | 1.22 ± 0.35 µM |  | 53.8 µM | > 100 µM |  |
| CN(c1ccc(-c2nc(C(=O)O)cc3c2[nH]c2ccccc23)cc1)S(C)(=O)=O [PA75, 1-[4-[methyl(methylsulfonyl)amino]phenyl]-9H-pyrido[3,4-b]indole-3-carboxylic acid] |  | 1.39 ± 0.43 µM |  | 38.7 µM | 64 µM |  |

From patent publication US20250188078A1, “SMALL MOLECULE INHIBITORS OF THE CRL4 UBIQUITIN LIGASE” (Cornell University, priority 2022, published 2025)
